By EC50 is commonly meant the concentration giving half of the maximal effect.

This assay has as its system HIV-1. The experiment in a line: Single-round infectious HIV-1 luciferase reporter virus infection of HeLa CD4 cells. The format is cell-based. Particulars: Human immunodeficiency virus 1, HeLa, 72 h, read-out: EC50 Group from Table 1. The procedure: • Virus production—Human embryonic Kidney cell line, 293T, was propagated in Dulbecco's Modified Eagle Medium (Invitrogen, Carlsbad, Calif.) containing 10% fetal Bovine serum (FBS, Sigma, St. Louis, Mo.). • Virus infection—Human epithelial cell line, HeLa, expressing the HIV-1 receptor CD4 was propagated in Dulbecco's Modified Eagle Medium (Invitrogen, Carlsbad, Calif.) containing 10% fetal Bovine serum (FBS, Sigma, St. Louis , Mo.) and supplemented with 0.2 mg/mL Geneticin (Invitrogen, Carlsbad, Calif.). Virus-Single-round infectious reporter virus was produced by co-transfecting human embryonic Kidney 293 cells with an HIV-1 envelope DNA expression vector and a proviral cDNA containing an envelope deletion mutation and the luciferase reporter gene inserted in place of HIV-1 nef sequences (Chen et al, Ref. 41). Transfections were performed using lipofectAMINE PLUS reagent as described by the manufacturer (Invitrogen, Carlsbad, Calif.). Experiment • 1. HeLa CD4 cells were plated in 96 well plates at a cell density of 1×10^4 cells per well in 100 μl Dulbecco's Modified Eagle Medium containing 10% fetal Bovine serum and incubated overnight. • 2. Compound was added in a 2 μl dimethylsulfoxide solution, so that the final assay concentration would be ≦10 μM. • 3. 100 μl of single-round infectious reporter virus in Dulbecco's Modified Eagle Medium was then added to the plated cells and compound at an approximate multiplicity of infection (MOI) of 0.01, resulting in a final volume of 200 μl per well. • 4. Virally-infected cells were incubated at 37 degrees Celsius, in a CO2 incubator, and harvested 72 h after infection. • 5. Viral infection was monitored by measuring luciferase expression from viral DNA in the infected cells using a luciferase reporter gene assay kit, as described by the manufacturer (Roche Molecular Biochemicals, Indianapolis, Ind.). Infected cell supernatants were removed and 50 μl of lysis buffer was added per well. After 15 minutes, 50 μl of freshly-reconstituted luciferase assay reagent was added per well. Luciferase activity was then quantified by measuring luminescence using a Wallac microbeta scintillation counter. • 6. The percent inhibition for each compound was calculated by quantifying the level of luciferase expression in cells infected in the presence of each compound as a percentage of that observed for cells infected in the absence of compound and subtracting such a determined value from 100. • 7. An EC50 provides a method for comparing the antiviral potency of the compounds of this disclosure. The effective concentration for fifty percent inhibition (EC50) was calculated with the Microsoft Excel Xlfit curve fitting software. For each compound, curves were generated from percent inhibition calculated at 10 different concentrations by using a four paramenter logistic model (model 205). Table 1 is the key for the data in Table 2. Results
A general note: In a reporter assay the amount or activity of a reporter protein is the signal.
For `N#C/N=C(\c1ccccc1)N1CCN(C(=O)C(=O)c2c[nH]c3cccc(F)c23)CC1` [AM-02], the 50% effective concentration (EC50) is less than 500 nM.

Regarding `CC[C@@H]1CN(/C(=N/C#N)c2ccccc2)CCN1C(=O)C(=O)c1c[nH]c2c(-n3ccnn3)ncc(F)c12` [AM-66], the EC50 is less than 500 nM.

With `COc1cnc(-c2cnccn2)c2[nH]cc(C(=O)C(=O)N3CCN(C(=N)c4ccccc4)C[C@H]3C)c12` [AM-71], the EC50 was less than 500 nM. Turning to `CN(C)CCC/N=C(\c1ccccc1)N1CCN(C(=O)C(=O)c2c[nH]c3cccc(F)c23)CC1` [AM-20], the EC50 is more than 500 nM. Next, `CC(C)(C)/N=C(\c1ccccc1)N1CCN(C(=O)C(=O)c2c[nH]c3ccccc23)CC1` [AM-14]: more than 500 nM; `O=C(C(=O)N1CCN(/C(=N/c2ccccc2)c2ccccc2)CC1)c1c[nH]c2cccc(F)c12` [AM-08, 1-(4-fluoro-1H-indol-3-yl)-2-(4-(phenyl(phenylimino)methyl)piperazin-1-yl)ethane-1,2-dione]: less than 500 nM; `CN(C)CCC/N=C(\c1ccccc1)N1CCN(C(=O)C(=O)c2c[nH]c3c(-n4ccnn4)ncc(F)c23)CC1` [AM-58]: less than 500 nM. Next, `COc1cnc(-n2cnc(C)n2)c2[nH]cc(C(=O)C(=O)N3CCN(C(=N)c4ccccn4)CC3)c12` [AM-55]: less than 500 nM; `N=C(c1ccccc1)N1CCN(C(=O)C(=O)c2c[nH]c3c(-c4nccs4)ccc(F)c23)CC1` [AM-77]: less than 500 nM; `O=C(C(=O)N1CCN(/C(=N/C2CC2)c2ccccc2)CC1)c1c[nH]c2cccc(F)c12` [AM-21]: more than 500 nM. In the case of `COc1ncc(OC)c2c(C(=O)C(=O)N3CCN(/C(=N/C#N)c4ccccc4)CC3)c[nH]c12` [AM-03], the EC50 is less than 500 nM.

On to `CN(C)S(=O)(=O)/N=C(\c1ccccc1)N1CCN(C(=O)C(=O)c2c[nH]c3c(-n4ccnn4)ncc(F)c23)CC1` [AM-67], for which the EC50 is less than 500 nM. Next, `O=C(C(=O)N1CCN(/C(=N/C2CCC2)c2ccccc2)CC1)c1c[nH]c2c(-n3ccnn3)ncc(F)c12` [AM-56]: less than 500 nM.

The values above are taken from patent publication US7396830B2, “Piperazine amidines as antiviral agents” (priority 2005, dated 2008).
